Data published in patent US20210127673A1, “HERBICIDES” (SYNGENTA PARTICIPATIONS AG, priority 2016, published 2021).

Columns and labels:
Format in all cases: in vivo
[1] = system: Amaranthus retroflexus (AMARE); assay: Pre-emergence herbicidal activity, Amaranthus retroflexus; design: key: 5=total damage to plant; 0=no damage to plant; conditions: 1000 g/ha, evaluated after 13 days, Test 1b
Procedure: (§1) Seeds of a variety of test species were sown in standard soil in pots: Triticum aestivium (TRZAW), Avena fatua (AVEFA), Alopecurus myosuroides (ALOMY), Echinochloa crus-galli (ECHCG), Lolium perenne (LOLPE), Zea Mays (ZEAMX), Abutilon theophrasti (ABUTH), Amaranthus retroflexus (AMARE) and Setaria faberi (SETFA). After cultivation for one day (pre-emergence) under controlled conditions in a glasshouse (at 24/16° C., day/night; 14 hours light; 65% humidity), the plants were sprayed with an aqueous spray solution derived from the formulation of the technical active ingredient in acetone/water (50:50) solution containing 0.5% Tween 20 (polyoxyethelyene sorbitan monolaurate, CAS RN 9005-64-5). The test plants were then grown in a glasshouse under controlled conditions (at 24/16°, day/night; 14 hours light; 65% humidity) and watered twice daily. After 13 days, the test was evaluated (5=total damage to plant; 0=no damage to plant).

[2] = system: Echinochloa crus-galli (ECHCG); assay: Pre-emergence herbicidal activity, Echinochloa crus-galli; design: key: 5=total damage to plant; 0=no damage to plant; conditions: 1000 g/ha, evaluated after 13 days, Test 1b
In short: (§2)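 Compound is applied as an aqueous spray (acetone/water 50:50, 0.5% Tween 20) to pots one day after sowing, before emergence. Growth continues in a glasshouse at 24/16 °C, 14 h photoperiod, 65% humidity, with twice-daily watering, and injury is graded after 13 days from 0 (no damage) to 5 (total damage).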

Zea Mays (ZEAMX) [3] = assay: Pre-emergence herbicidal activity, Zea Mays; design: key: 5=total damage to plant; 0=no damage to plant; conditions: 1000 g/ha, evaluated after 13 days, Test 1b
Procedure: as §1

Lolium perenne (LOLPE) [4] = assay: Pre-emergence herbicidal activity, Lolium perenne; design: key: 5=total damage to plant; 0=no damage to plant; conditions: 1000 g/ha, evaluated after 13 days, Test 1b
In short: as §2

[5] = system: Amaranthus retroflexus (AMARE); assay: Post-emergence herbicidal activity, Amaranthus retroflexus; design: key: 5=total damage to plant; 0=no damage to plant; conditions: 1000 g/ha, evaluated after 13 days, Test 2b
Procedure: (§3) Seeds of a variety of test species were sown in standard soil in pots: Triticum aestivium (TRZAW), Avena fatua (AVEFA), Alopecurus myosuroides (ALOMY), Echinochloa crus-galli (ECHCG), Lolium perenne (LOLPE), Zea Mays (ZEAMX), Abutilon theophrasti (ABUTH), Amaranthus retroflexus (AMARE) and Setaria faberi (SETFA). After 8 days cultivation (post-emergence) under controlled conditions in a glasshouse (at 24/16° C., day/night; 14 hours light; 65% humidity), the plants were sprayed with an aqueous spray solution derived from the formulation of the technical active ingredient in acetone/water (50:50) solution containing 0.5% Tween 20 (polyoxyethelyene sorbitan monolaurate, CAS RN 9005-64-5). The test plants were then grown in a glasshouse under controlled conditions (at 24/16° C., day/night; 14 hours light; 65% humidity) and watered twice daily. After 13 days, the test was evaluated (5=total damage to plant; 0=no damage to plant).

[6] = system: Echinochloa crus-galli (ECHCG); assay: Post-emergence herbicidal activity, Echinochloa crus-galli; design: key: 5=total damage to plant; 0=no damage to plant; conditions: 1000 g/ha, evaluated after 13 days, Test 2b
In short: (§4)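 Scoring runs 0 (no damage) to 5 (total damage), assessed 13 days after treatment. Seedlings 8 days post-sowing received an aqueous spray from acetone/water 50:50 with 0.5% Tween 20, then were kept at 24/16 °C, 14 h light, 65% humidity and watered twice daily.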

Lolium perenne (LOLPE) [7] = assay: Post-emergence herbicidal activity, Lolium perenne; conditions: 1000 g/ha, evaluated after 13 days, Test 2b
In short: as §4

Setaria faberi (SETFA) [8] = assay: Post-emergence herbicidal activity, Setaria faberi; design: key: 5=total damage to plant; 0=no damage to plant; conditions: 1000 g/ha, evaluated after 13 days, Test 2b
In short: as §4

Setaria faberi (SETFA) [9] = assay: Pre-emergence herbicidal activity, Setaria faberi; design: key: 5=total damage to plant; 0=no damage to plant; conditions: 1000 g/ha, evaluated after 13 days, Test 1b
In short: as §2

[10] = system: Abutilon theophrasti (ABUTH); assay: Pre-emergence herbicidal activity, Abutilon theophrasti; design: key: 5=total damage to plant; 0=no damage to plant; conditions: 1000 g/ha, evaluated after 13 days, Test 1b
Procedure: as §1

[11] = system: Abutilon theophrasti (ABUTH); assay: Post-emergence herbicidal activity, Abutilon theophrasti; design: key: 5=total damage to plant; 0=no damage to plant; conditions: 1000 g/ha, evaluated after 13 days, Test 2b
Procedure: as §3

Zea Mays (ZEAMX) [12] = assay: Post-emergence herbicidal activity, Zea Mays; design: key: 5=total damage to plant; 0=no damage to plant; conditions: 1000 g/ha, evaluated after 13 days, Test 2b
Procedure: as §3

Row | SMILES | AMARE damage score (0-5) [1] | ECHCG damage score (0-5) [2] | ZEAMX damage score (0-5) (Zea Mays (ZEAMX) [3]) | LOLPE damage score (0-5) (Lolium perenne (LOLPE) [4]) | AMARE damage score (0-5) [5] | ECHCG damage score (0-5) [6] | LOLPE damage score (0-5) (Lolium perenne (LOLPE) [7]) | SETFA damage score (0-5) (Setaria faberi (SETFA) [8]) | SETFA damage score (0-5) (Setaria faberi (SETFA) [9]) | ABUTH damage score (0-5) [10] | ABUTH damage score (0-5) [11] | ZEAMX damage score (0-5) (Zea Mays (ZEAMX) [12])
1 | Cc1nc(-c2cncc(C(F)(F)F)c2)ccc1NC(=O)OC(C)(C)C [Compound B24] | 1 | 0 | 1 | 0 | 2 | 2 | 1 | 2 | 1 | 1 | 1 | 2
2 | Cc1nc(-c2cccnc2)ccc1NC(=O)OC(C)(C)C [Compound B25] | 1 | 2 | 3 | 2 | 2 | 3 | 4 | 5 | 5 | 1 | 2 | 4
3 | CC(C)(C)OC(=O)Nc1ccc(-c2cncnc2)nc1Cl [Compound B27] | 0 | 4 | 2 | 1 | 2 | 4 | 2 | 5 | 4 | 0 | 2 | 3
4 | Cc1nc(-c2cncnc2)ccc1NC(=O)OC(C)(C)C [Compound B28] | 0 | 2 | 3 | 1 | 0 | 4 | 4 | 4 | 2 | 0 | 0 | 5
5 | CN(C(=O)OC(C)(C)C)c1ccc(-c2cncc(F)c2)nc1C(F)(F)F [Compound B29, tert-butyl N-[6-(5-fluoro-3-pyridyl)-2-(trifluoromethyl)-3-pyridyl]-N-methyl-carbamate] | 2 | 4 | 3 | 1 | 1 | 4 | 3 | 5 | 4 | 1 | 1 | 5
6 | CC(C)(C)OC(=O)Nc1ccc(-c2cncc(F)c2)nc1C(F)(F)F [Compound B30, tert-butyl N-[6-(5-fluoro-3-pyridyl)-2-(trifluoromethyl)-3-pyridyl]carbamate] | 2 | 3 | 5 | 1 | 0 | 5 | 4 | 5 | 4 | 0 | 0 | 5
7 | CN(C(=O)OC(C)(C)C)c1ccc(-c2cncnc2)nc1C(F)(F)F [Compound B31] | 1 | 3 | 4 | 1 | 1 | 4 | 2 | 5 | 5 | 0 | 1 | 5
8 | CC(C)(C)OC(=O)Nc1ccc(-c2cncnc2)nc1C(F)(F)F [Compound B32, tert-butyl N-[6-pyrimidin-5-yl-2-(trifluoromethyl)-3-pyridyl]carbamate] | 0 | 3 | 5 | 1 | 0 | 4 | 2 | 5 | 5 | 0 | 0 | 5
